Laboratory results: patent US20110028566A1, “COMPOSITIONS AND PRODUCTS CONTAINING CYCLOALIPHATIC DIOL ANTIMICROBIAL AGENTS AND METHODS OF USING THE COMPOSITIONS AND PRODUCTS” (EASTMAN CHEMICAL COMPANY, priority 2009, published 2011)

Key:
Format in all cases: cell-based
Burkholderia cepacia = experiment: Microbial challenge testing in BPW; conditions: BPW, w/v % in label, average of replicates; for Grade code, B. cepacia, 3 Days: 3 days incubation; for Grade code, B. cepacia, 14 Days: 14 days incubation; for Grade code, B. cepacia, 30 Days: 30 days incubation
In short: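 BPW + 1% dextrose, pH 7.0; test material added as g/100 mL; inoculum from TSB/1% dextrose cultures grown ≥96 h at 35° C.; t0 load 10^5–10^6 cfu/mL; 35° C.±2° C. ×14 d, then RT.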

Malassezia furfur = experiment: Challenge testing with pathogenic fungi in SDB; conditions: SDB with olive oil and Tween 80, w/v % in label, pellicle formation; for Grade code, Pathogenic Fungi, M. furfur, 3 Days: 3 days incubation; for Grade code, Pathogenic Fungi, M. furfur, 14 Days: 14 days incubation; for Grade code, Pathogenic Fungi, M. furfur, 30 Days: 30 days incubation
Description: (§1) Both M. canis and Trichophyton rubrum were grown on Sabouraud dextrose broth (SDB) (pH 5.6), while Malassezia fufur was grown in SDB supplemented with 2% (v/v) of olive oil and 0.2% (v/v) of Tween™ 80; incubation was at 22° C.±2° C. under continuous agitation by stirring for 10 days. The organisms were grown to a cell concentration of between 10^3 and 10^4 cfu/mL. The actual inoculation cell concentration of these challenges was determined by diluting in sterile buffer water and (spread-plate method) plating for enumeration.
(§2) Challenge organisms were used to inoculate tubes containing each test material (CHDM, etc) or combination of test materials, at concentrations given in Table 5, in SDB (or for M. furfur, in SDB supplemented with olive oil and Tween™ 80). The inoculations were in the amount of 1.5 mL aliquots of each culture with static incubation at 22±2° C. Subcultures were made after 3-, 14-, and 30-days incubation. All challenges were conducted in triplicate. In the case of M. canis, the growth response was assessed by the visual presence or absence of growth in the tubes; in the case of T. rubrum, a respiratory dye (0.2% w/v aqueous INT solution: 2-(4-iodophenyl)-3-(4-nitrophenyl)-5-phenyl tetrazolium chloride) was added to the tubes, turning red if the organism was viable; and, finally, in the case of M. furfur, the growth response was assessed based upon visible pellicle formation in the tubes at the meniscus. The fungal growth in each tube was assigned a grade code as follows:
(§3) 0: No visible growth 1: Some growth in tube 2: Moderate growth in tube 3: Good growth in tube 4: Extreme growth in tube
(§4) All test material concentrations are given as w/v %. The grade codes given are the average of the grade codes for duplicate or triplicate samples.
(§5) Table 5 compares the antimicrobial activity of 1,4-CHDM (AB) alone to 1,4-CHDM in combination with EDTA, phenoxyethanol (PE), and caprylyl glycol (CG). CHDM at 0.5% was tested with EDTA, and at 1.25 and 2.5% with EDTA, PE, and CG. (Note that the combination of CHDM with only EDTA was not tested against pathogenic fungi.) Results are also given for EDTA, PE, and CG alone, so the result for each mixture can be compared to the antimicrobial activity for each of its components individually. […] Possible synergies were determined by treating the grade code as an estimate of the log of the microbial count (log of cfu/mL). Log reductions can then be estimated by subtracting each grade code from the grade code for broth alone (grade code 5, except for the pathogenic fungi).

Microsporum canis = experiment: Challenge testing with pathogenic fungi in SDB; conditions: w/v % in label, visual growth in tubes; for Grade code, Pathogenic Fungi, M. canis, 3 Days: 3 days incubation; for Grade code, Pathogenic Fungi, M. canis, 14 Days: 14 days incubation; for Grade code, Pathogenic Fungi, M. canis, 30 Days: 30 days incubation
Description: as §1, §2, §3, §4, §5

Trichophyton rubrum = experiment: Challenge testing with pathogenic fungi in SDB; conditions: w/v % in label, INT respiratory dye; for Grade code, Pathogenic Fungi, T. ruburm, 3 Days: 3 days incubation; for Grade code, Pathogenic Fungi, T. ruburm, 14 Days: 14 days incubation; for Grade code, Pathogenic Fungi, T. ruburm, 30 Days: 30 days incubation
Description: as §1, §2, §3, §4, §5

Row | Compound | Grade code, B. cepacia, 3 Days (Burkholderia cepacia) | Grade code, B. cepacia, 14 Days (Burkholderia cepacia; listed as 0.25% CG) | Grade code, B. cepacia, 14 Days (Burkholderia cepacia; listed as 0.5% CG) | Grade code, B. cepacia, 30 Days (Burkholderia cepacia; listed as 0.25% CG) | Grade code, B. cepacia, 30 Days (Burkholderia cepacia; listed as 0.5% CG) | Grade code, Pathogenic Fungi, M. furfur, 3 Days (Malassezia furfur) | Grade code, Pathogenic Fungi, M. furfur, 14 Days (Malassezia furfur) | Grade code, Pathogenic Fungi, M. furfur, 30 Days (Malassezia furfur) | Grade code, Pathogenic Fungi, M. canis, 3 Days (Microsporum canis) | Grade code, Pathogenic Fungi, M. canis, 14 Days (Microsporum canis) | Grade code, Pathogenic Fungi, M. canis, 30 Days (Microsporum canis) | Grade code, Pathogenic Fungi, T. ruburm, 3 Days (Trichophyton rubrum) | Grade code, Pathogenic Fungi, T. ruburm, 14 Days (Trichophyton rubrum) | Grade code, Pathogenic Fungi, T. ruburm, 30 Days (Trichophyton rubrum) | Grade code, B. cepacia, 14 Days (Burkholderia cepacia) | Grade code, B. cepacia, 30 Days (Burkholderia cepacia)
1 | CCCCCCC(O)CO (centres unmarked) [CG, 1,2-octanediol] | 2 (52 to 100 colonies counted (thus 520 to 1000 cfu/mL)) | 0.5 | 0 (No growth detected or <1 colony (thus <10 cfu/mL)) | 0.5 | 0 (No growth detected or <1 colony (thus <10 cfu/mL)) | 0 | 0 | 0 | 0 | 0 | 0 | 0 | 0 | 0 |  | 
2 | O=C([O-])CN(CCN(CC(=O)O)CC(=O)O)CC(=O)[O-].[Na+].[Na+] [EDTA, ethylenediaminetetraacetic acid disodium salt] | 4 (1001 to 10,000 colonies (thus 10,000 cfu/mL to 100,000 cfu/mL)) |  |  |  |  | 0 | 0 | 0 | 2 | 1 | 0 | 1 | 0 | 0 | 4 (1001 to 10,000 colonies (thus 10,000 cfu/mL to 100,000 cfu/mL)) | 4 (1001 to 10,000 colonies (thus 10,000 cfu/mL to 100,000 cfu/mL))
